Experimental data: US20090029982A1, “PROTEIN KINASE INHIBITORS” (SUPERGEN, INC., priority 2005, published 2009)

Assays:
[1] = tested on: HT-29 human colon cancer cells; assay: HT-29 xenograft study in mice; format: in vivo; details: 25 mg/kg intraperitoneally, q.d.×5 for two weeks
Method: In order to evaluate the effectiveness of MP277 against tumor cells in a living system, a xenograft study was performed in mice. 1×10^7 HT-29 human colon cancer cells were injected subcutaneously into 16 Nu/Nu athymic nude mice (Charles River Laboratories, Wilmington, Mass.). Tumor volume was measured according to the formula ((Width)^2*Length)/2. Tumors were allowed to grow to approximately 100 mm^3 in volume (Day 0), at which point mice were randomized to two groups: Eight mice were treated with 25 mg/kg MP277, while the other eight were given an equal volume of drug vehicle. For this study, the drug vehicle used was 60% propylene glycol, 30% polyethylene glycol 300, 10% ethanol with 150 mg/mL 2-hydroxypropyl-beta-cyclodextrin. Each mouse received 0.1 mL of drug or vehicle intraperitoneally on a q.d.×5 schedule for two weeks, with two days rest between cycles.

[2] = molecular target: T1, recombinant aurora-2 kinase (Homo sapiens, UniProt O14965); assay: aurora-2 kinase inhibition assay (Kinase-Glo, ATP remaining); format: biochemical; details: Example 20, Table 2; 3 μM ATP, 62.5 μM Kemptide, 30° C., two hours; read-out: IC50 A2K
T1 construct: purchased Upstate, Lake Placid, N.Y; host or cells: sf9 cells
T1 sequence (O14965 1-403): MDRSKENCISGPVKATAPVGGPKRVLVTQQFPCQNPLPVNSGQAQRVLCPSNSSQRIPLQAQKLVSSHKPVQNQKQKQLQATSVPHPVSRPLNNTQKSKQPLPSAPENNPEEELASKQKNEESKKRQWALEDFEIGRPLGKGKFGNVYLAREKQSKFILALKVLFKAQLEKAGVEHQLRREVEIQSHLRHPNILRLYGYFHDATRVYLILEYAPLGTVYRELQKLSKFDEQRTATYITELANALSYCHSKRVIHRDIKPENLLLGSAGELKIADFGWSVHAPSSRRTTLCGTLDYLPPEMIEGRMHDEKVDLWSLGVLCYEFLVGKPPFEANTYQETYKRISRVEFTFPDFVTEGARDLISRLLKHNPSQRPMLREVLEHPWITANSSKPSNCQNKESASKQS
Method: In this assay kinase activity was determined by quantifying the amount of ATP remaining in solution following a kinase reaction by measuring the light units (LU) produced by luciferase using a luminometer. Percent inhibition was determined for individual compounds by comparing luminometer readings of drug-treated reactions to controls containing no drug (DMSO control) and no Aurora-2 enzyme (ATP control) in the following equation: […]
In a 50 μl reaction, recombinant aurora-2 kinase produced in sf9 cells (Upstate, Lake Placid, N.Y.) was incubated at 30° C. for two hours with 62.5 μM Kemptide (Calbiochem, San Diego, Calif.), 3 μM ATP (Invitrogen, Carlsbad, Calif.) and kinase reaction buffer (40 mM Tris-HCl, 10 mM MgCl2 and 0.1 μg/μl bovine serum albumin (BSA)). This reaction was carried out in the presence of drug substances, which had been previously diluted to desired concentrations in DMSO. […] Kinase activity is determined by quantifying the amount of ATP remaining in solution following the kinase reaction by measuring the light units (LU) produced by luciferase using a luminometer (Thermo-Electron, Vantaa, Finland).
Briefly, kinase activity was determined by quantifying the amount of ATP remaining in solution following a kinase reaction by measuring the light units (LU) produced by luciferase using a luminometer. […]

SMILES	toxicity noted through the duration of the study ([1]; nude mice)	inhibition of tumor growth in vivo ([1]; subcutaneous HT-29 xenograft, FIG. 1)	IC50 [2]
CC(=O)NS(=O)(=O)c1ccc(NC(=S)N2CCN(c3ncnc4[nH]c5cc(C(F)(F)F)c(Cl)cc5c34)CC2)cc1 [Compound 1, 4-(6-Chloro-7-trifluoromethyl-9H-pyrimido[4,5-b]indol-4-yl)-piperazine-1-carbothioic acid (4-acetylsulfamoyl-phenyl)-amide]	No noticeable toxicity	effective for inhibiting tumor growth in vivo	
COc1cc2[nH]c3ncnc(N4CCN(C(=S)Nc5ccc(S(=O)(=O)NC(C)=O)cc5)CC4)c3c2cc1OC [Compound 2]			5 nM
